pIC50: −log10 of the molar value.
molecular target: T1, 5-HT1A receptors (Rattus norvegicus, UniProt P19327); assay: Inhibition of 3H-8-OH-DPAT binding to synaptosomal membranes from rat cerebral cortex; set-up: species or system Male Sprague-Dawley rats; settings: 0.4 nM 3H-8-OH-DPAT, 37°C, 10 min, read-out: IC50 (concentration in nanomoles which inhibited binding of 8-OH-DPAT by 50%)
T1 construct: from tissue; host or cells: rat cerebral cortex, crude synaptosomal membranes
T1 sequence (P19327 1-422): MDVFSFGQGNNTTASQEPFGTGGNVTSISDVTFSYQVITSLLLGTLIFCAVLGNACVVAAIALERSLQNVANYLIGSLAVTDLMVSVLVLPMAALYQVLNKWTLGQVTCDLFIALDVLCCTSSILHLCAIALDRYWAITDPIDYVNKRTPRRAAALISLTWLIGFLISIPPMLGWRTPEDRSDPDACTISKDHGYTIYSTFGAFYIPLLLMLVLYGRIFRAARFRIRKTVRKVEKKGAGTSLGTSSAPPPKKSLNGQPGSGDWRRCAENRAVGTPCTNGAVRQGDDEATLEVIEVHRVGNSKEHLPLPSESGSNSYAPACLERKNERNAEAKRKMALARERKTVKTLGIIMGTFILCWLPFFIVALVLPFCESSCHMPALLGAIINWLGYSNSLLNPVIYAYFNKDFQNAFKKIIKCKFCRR
Method: This general procedure is set forth in Wong et al., J. Neural Transm. 71:207-218 (1988).
Male Sprague-Dawley rats (110-150 g) from Harlan Industries (Cumberland, IN) were fed a Purina Chow ad libitum for at least 3 days before being used in the studies. Rats were killed by decapitation. The brains were rapidly removed, and the cerebral cortices were dissected out at 4°C.
Brain tissues were homogenized in 0.32 M sucrose. After centrifugation at 1000 x g for 10 min and then at 17000 x g for 20 min, a crude synaptosomal fraction was sedimented. The pellet was suspended in 100 vol of 50 mM Tris-HCl, pH 7.4, incubated at 37°C for 10 min, and centrifuged at 50000 x g for 10 min. The process was repeated and the final pellet was suspended in ice-chilled 50 mM Tris-HCl, pH 7.4. By the radioligand binding method, sites specifically labeled by tritiated 8-hydroxy-2-dipropylamino-1,2,3,4-tetrahydronaphthalene (^3H-8-OH-DPAT) have been identified as 5-HT1A receptors.
Binding of (^3H-8-OH-DPAT) was performed according to the previously described method [Wong et al., J. Neural Transm. 64:251-269 (1985)]. Briefly, synaptosomal membranes isolated from cerebral cortex were incubated at 37°C for 10 min. in 2 ml of 50 mM Tris-HCl, pH 7.4; 10 µM pargyline; 0.6 mM ascorbic acid; 0.4 nM ^3H-8-OH-DPAT; and from […] of test compound. Binding was terminated by filtering samples under reduced pressure through glass fiber (GFB) filters. The filters were washed twice with 5 ml of ice cold buffer and placed in scintillation vials with 10 ml of PCS (Amersham/Searle) scintillation fluid. Radioactivity was measured with a liquid scintillation spectrometer. Unlabeled 8-OH-DPAT at 10 µM was also included in separate samples to establish non-specific binding. Specific binding of ^3H-8-OH-DPAT is defined as the difference of radioactivity bound in the absence and in the presence of 10 µM unlabeled 8-OH-DPAT.
For these compounds which inhibited the binding of ^3H-8-OH-DPAT by less than 50%, the percent of inhibition is given in parenthesis.

Row | pIC50 | SMILES
1 | 7.96 | CCCN(CCC)[C@@H]1Cc2c(C(N)=O)ccc3c2[C@H](CN3)C1 [Example 9, (2aR,4S)-4-(di-n-propylamino)-6-aminocarbonyl-1,2,2a,3,4,5-hexahydrobenz[c,d]indole]
2 | 8.68 | CCCN(CCC)[C@H]1Cc2c(C(N)=O)ccc3c2[C@@H](CN3)C1 [Example 10, (2aS, 4R)-4-(di-n-propyl)-6-aminocaronyl-1,2,2a,3,4,5-hexahydrobenz[c,d]indole]
3 | 8.24 | CCCN(CCC)[C@H]1Cc2c(C(=O)OC)ccc3c2[C@@H](CN3)C1 [Example 11, Methyl (2aS,4R)-4-(Di-n-propylamino)-1,2,2a,3,4,5-hexahydrobenz[c,d]indole-6-carboxylate]
4 | 8.29 | CCCN(CCC)[C@H]1Cc2c(C(=O)N(C)C)ccc3c2[C@@H](CN3)C1 [Example 12, (2aS,4R)-N,N-Dimethyl-4-(di-n-propylamino)-1,2,2a,3,4,5-hexahydrobenz[cd]indole-6-carboxamide]

same assay, conditions: at 100 nanomoles of test compound, 0.4 nM 3H-8-OH-DPAT, read-out: percent of inhibition of binding of 8-OH-DPAT at 100 nanomoles if less than 50%

Row | SMILES | inhibition at 0.1 µM
5 | N[C@@H]1Cc2c(Br)ccc3c2[C@@H](C1)CN3C(=O)c1ccccc1 [Example 1, (2aR,4S)-1-benzoyl-4-amino-6-bromo-1,2,2a,3,4,5-hexahydrobenz[cd]indole] | 6%
6 | CCCN(CCC)[C@@H]1Cc2c(Br)ccc3c2[C@@H](C1)CN3C(=O)c1ccccc1 [Example 3, (2aR, 4S)-1-Benzoyl-4-(di-n-propyl)-amino-6-bromo-1,2,2a,3,4,5-hexahydrobenz[cd]indole] | 5%
7 | CCCN(CCC)[C@@H]1Cc2c(C#N)ccc3c2[C@@H](C1)CN3C(=O)c1ccccc1 [Example 5, (2aR,4S)-1-benzoyl-4-(di-n-propyl)amino-6-cyano-1,2,2a,3,4,5-hexahydrobenz[cd]indole] | 11%
8 | CCCN(CCC)[C@@H]1Cc2c(C#N)ccc3c2[C@H](CN3)C1 [Example 7, (2aR,4S)-4-(di-n-propyl)amino-6-cyano-1,2,2a,3,4,5-hexahydrobenz[cd]indole] | 21%

Reference: patent publication EP0444854B1, “6-Substituted hexahydrobenz[cd]indoles” (ELI LILLY AND COMPANY, priority 1990, dated 1991)
